# Experimental data published in patent US7169890B2, “Process for the production of ramoplanin-like amide derivatives” (Vicuron Pharmaceuticals Inc., priority 2002, dated 2007).
# Assays:
# [1] = tested on: Staphylococcus aureus Smith SA 819; test: Murine septicaemia, Staphylococcus aureus Smith SA 819 systemic infection; format: in vivo; conditions: mice, i.p. infection, s.c. treatment, survival to day 7
# Description: As an example, therapeutical effectiveness of some representative compounds of formula (Ia) in murine septicaemia caused by intraperitoneally administered Staphylococcus aureus Smith SA 819 was evaluated in comparison with ramoplanin. Vancomycin was chosen as reference drug for the evaluation of in vivo antiinfective activity.
# Mice were infected intraperitoneally with Staphylococcus aureus Smith SA 819. Untreated animals died within 24 hours after infection. Groups of eight mice each were treated s.c. with different dose levels of ramoplanin or of each test compound, starting 10–20 min after challenge. Reference drugs was s.c. injected vancomycin.
# [2] = tested on: methicillin-resistant Staphylococcus aureus SA 613; test: Murine infection, methicillin-resistant Staphylococcus aureus SA 613; format: in vivo; conditions: mice, i.p. infection, s.c. treatment, survival to day 7
# Description: Mice were infected intraperitoneally with ca 10^7 CFU/mouse of Staphylococcus aureus SA 613. Untreated animals died within 24 hours after infection. Groups of eight mice each were treated iv or s.c. with different dose levels of ramoplanin or each test compound, starting 10–20 minutes after challenge. Ramoplanin and vancomycin were used as reference drugs.
# 49 Strep. pyogenes C203 = test: MIC, broth microdilution NCCLS (isolated compounds or reaction solutions); format: cell-based, Streptococcus pyogenes; conditions: for MIC: 49 Strep. pyogenes C203, isolated compounds
# Description: (§1) The antimicrobial activity in vitro of the compounds obtained according to the process of this invention was evaluated against a panel of clinical isolates of methicillin-sensitive, methicillin-resistant and vancomycin-intermedie Staphylococcus aureus, Van-S and Van-A Enterococcus faecium and faecalis, Streptococcus pyogenes, Escherichiae coli and Candida albicans.
# (§2) MICs were performed using the broth microdilution methodology following the NCCLS procedure (NCCLS Document M7-A4 Vol.17 No.2 January 1997) in presence of 0.02% albumine bovine serum with inocula of approximately 5×10^5 cfu/mL. The media employed included cation-adjusted Mueller-Hinton (MH) broth (Difco Laboratories, Detroit, Mich., USA) supplemented or not with 30% (v/v) bovine serum. Tests were read after 24 h incubation at 37° C.
# (§3) A further set of experiments for measuring the antimicrobial activity in vitro of a series of compounds of formula (Ia) in comparison with the known compound 1 was carried out directly on the solutions deriving from the reaction of the starting acid of formula (IV) with the deacyl ramoplanin of formula (III) according to the method A described in the Examples.
# (§4) The reaction solutions (resulting from the addition of 1M hydrochloric acid as described in Method A) were diluted at 6000 mcg/ml by adding 0.1% peptone Difco Laboratories, (Detroit, Mich., USA) plus 0.9% NaCl (PBS). The resulting solutions were diluted with water at the desired concentration to perform the test that was then carried out in the same way described for the isolated compounds reported in Table 2.
# blood cells [3] = test: Haemolytic potential on blood cells (isolated compounds); format: cell-based, rats
# Description: The ramoplanin-like amide derivatives were dissolved at 40.000 mcg/ml in dimethyl sulfoxide (DMSO) and then diluted 1:5 in 0.1% peptone Difco Laboratories, (Detroit, Mich., USA) plus 0.9% NaCl (PBS).
# (§5) Whole blood sample was obtained from the dorsal aorta of rats and diluted 1:100 in PBS before the test.
# Group 2—PBS as physiologic haemolysis control
# Group 3—saponin (Sigma), solution at 3% in distilled water, as 100% haemolysis control.
# (§6) The test groups were diluted 1:5 in blood cells and incubated in water bath at 37° C. for 45 minutes.
# (§7) After the incubation time the samples were centrifuged at 2500–3000 g for 10 minutes, and 0.1 ml of each supernatant was diluted in 900 mcl of Drabkin's reagent (Sigma).
# (§8) The optical density (OD) of the samples was measured at 540 nm versus a blank preparation of Drabkin's reagent plus 0.1 ml of PBS.
# The test was performed in triplicate.
# (§9) The percentage of haemolysis was calculate using the formula Δx/Δt×100=% of haemolysis
# Δx=mean value of OD540 for each concentration tested (GROUP 1–2)
# Δt=mean value of OD540 for 100% haemolysis control (GROUP 3).
# (§10) The haemolysis was considered significant when exceeding at least 3 times the haemolytic value of blank control (GROUP 2).
# blood cells [4] = test: Haemolytic effect (reaction solutions); format: cell-based, rats
# Description: as §5, §6, §7, §8, §9, §10
# as §3, with “haemolytic effect” for “antimicrobial activity in vitro”
# The reaction solutions (resulting from the addition of 1M hydrochloric acid as described in Method A) were diluted at 1200 mcg/ml by adding 0.1% peptone Difco Laboratories, (Detroit, Mich., USA) plus 0.9% NaCl (PBS).
# [5] = tested on: 3798 Staph. aureus clin. isolate VISA; test: MIC, broth microdilution NCCLS (isolated compounds or reaction solutions); format: cell-based, Staphylococcus aureus; conditions: for MIC: 3798 Staph. aureus clin. isolate VISA, isolated compounds
# Description: as §1, §2, §3, §4
# [6] = tested on: 3797 Staph. aureus clin. isolate VISA Met-R; test: as above; format: cell-based, Staphylococcus aureus; conditions: for MIC: 3797 Staph. aureus clin. isolate VISA Met-R, isolated compounds
# Description: as §1, §2, §3, §4
# 819 Staph. aureus Smith = test: as above; format: cell-based, Staphylococcus aureus; conditions: for MIC: 819 Staph. aureus Smith, isolated compounds
# Description: as §1, §2, §3, §4
# [7] = tested on: 613 Staph. aureus clin. isolate Met-R; test: as above; format: cell-based, Staphylococcus aureus; conditions: for MIC: 613 Staph. aureus clin. isolate Met-R, isolated compounds
# Description: as §1, §2, §3, §4
# [8] = tested on: 145 Candida albicans SKF2270; test: as above; format: cell-based; conditions: for MIC: 145 Candida albicans SKF2270, isolated compounds
# Description: as §1, §2, §3, §4
# [9] = tested on: 559 Entero. faecalis (isogenic of L 560); test: as above; format: cell-based, Enterococcus faecalis
# Description: as §1, §2, §3, §4
# [10] = tested on: 560 Entero. faecalis VanA; test: as above; format: cell-based, Enterococcus faecalis; conditions: for MIC: 560 Entero. faecalis VanA, isolated compounds
# Description: as §1, §2, §3, §4
# 47 E coli SKF12140 = test: as above; format: cell-based, Escherichiae coli; conditions: for MIC: 47 E coli SKF12140, isolated compounds
# Description: as §1, §2, §3, §4
# [11] = tested on: 568 Entero. faecium (isogenic of L569); test: as above; format: cell-based, Enterococcus faecium
# Description: as §1, §2, §3, §4
# [12] = tested on: 569 Entero. faecium clin. isolate Van-A; test: as above; format: cell-based, Enterococcus faecium; conditions: for MIC: 569 Entero. faecium clin. isolate Van-A, isolated compounds
# Description: as §1, §2, §3, §4
# [13] = reaction solutions, +30% bovine serum
Compound,MIC (49 Strep. pyogenes C203),% lyis at 100 mcg/ml (blood cells [3]),% lysis at 200 mcg/ml (blood cells [3]),% lysis at 400 mcg/ml (blood cells [3]),MIC ([5]; +30% bovine serum),MIC [5],MIC [6],MIC (819 Staph. aureus Smith; +30% bovine serum),MIC (819 Staph. aureus Smith; MH broth),MIC [7],MIC [8],MIC ([10]; +30% bovine serum),MIC [10],MIC (47 E coli SKF12140),MIC ([12]; +30% bovine serum),MIC [12],other results
CN[C@H](CC(C)C)C(=O)N[C@H]1C(=O)N[C@@H](CC(N)=O)C(=O)N[C@H]2C(=O)N[C@H]3C(=O)N[C@H](C(=O)N[C@H](C(=O)O)c4cc(O)cc(O)c4-c4cc3ccc4O)[C@H](O)c3ccc(c(Cl)c3)Oc3cc2cc(c3O[C@@H]2O[C@H](CO)[C@@H](O)[C@H](O)[C@H]2O[C@H]2C[C@](C)(N)[C@H](O)[C@H](C)O2)Oc2ccc(cc2Cl)[C@H]1O [Vancomycin],,,,,,,,,,,,,,,,,ED50 [1]: 0.64 mg/kg/dose; ED50 [2]: 8 mg/kg/dose
ramoplanin factor A2 [Compound 1],<0.03 µg/mL,86.04%,100%,100%,16 µg/mL,1 µg/mL,2 µg/mL,4 µg/mL,0.125 µg/mL,0.25 µg/mL,>32 µg/mL,2 µg/mL,0.06 µg/mL,>32 µg/mL,2 µg/mL,0.125 µg/mL,"MIC 49 Strep. pyogenes C203 (49 Strep. pyogenes C203; reaction solutions, no serum): ≦0.125 mcg/ml; % lysis at 300 mcg/ml (blood cells [4]; 300 mcg/ml): 74.39%; % lysis at 600 mcg/m (blood cells [4]; 600 mcg/m): 88.87%; MIC 3798 Staph. aureus clin. isolate VISA +30% bovine serum [5, 13]: 8 µg/mL; MIC 3798 Staph. aureus clin. isolate VISA ([5]; reaction solutions, no serum): 1 µg/mL; MIC 3797 Staph. aureus clin. isolate VISA Met-R ([6]; reaction solutions, no serum): 2 µg/mL; MIC 819 Staph. aureus Smith +30% bovine serum (819 Staph. aureus Smith; [13]): 2 µg/mL; MIC 819 Staph. aureus Smith (819 Staph. aureus Smith; reaction solutions, no serum): ≦0.125 mcg/ml; MIC 613 Staph. aureus clin. isolate Met-R ([7]; reaction solutions, no serum): 0.25 µg/mL; MIC 145 Candida albicans SKF2270 ([8]; reaction solutions): >128 µg/mL; MIC ([9]; 559 Entero. faecalis (isogenic of L 560), isolated compounds): 0.06 µg/mL; MIC 559 Entero. faecalis (isogenic of L 560) ([9]; reaction solutions, no serum): ≦0.125 mcg/ml; MIC 560 Entero. faecalis VanA +30% bovine serum [10, 13]: 2 µg/mL; MIC 560 Entero. faecalis VanA ([10]; reaction solutions, no serum): ≦0.125 mcg/ml; MIC 47 E coli SKF12140 (47 E coli SKF12140; reaction solutions): >128 µg/mL; MIC 568 Entero. faecium (isogenic of L569) ([11]; reaction solutions, no serum): ≦0.125 mcg/ml; MIC 569 Entero. faecium clin. isolate Van-A +30% bovine serum [12, 13]: 2 µg/mL; MIC 569 Entero. faecium clin. isolate Van-A ([12]; reaction solutions, no serum): ≦0.125 mcg/ml"
ramoplanin factor A1 [Compound 35],<0.125 µg/mL,58.99%,80.44%,92.82%,2 µg/mL,0.5 µg/mL,1 µg/mL,0.5 µg/mL,<0.125 µg/mL,<0.125 µg/mL,>128 µg/mL,0.5 µg/mL,<0.125 µg/mL,>128 µg/mL,1 µg/mL,<0.125 µg/mL,
tetrahydroderivative of ramoplanin factor A1 [Compound 5],<0.03 µg/mL,,,,,2 µg/mL,4 µg/mL,4 µg/mL,0.25 µg/mL,0.5 µg/mL,>32 µg/mL,2 µg/mL,0.06 µg/mL,>32 µg/mL,4 µg/mL,0.125 µg/mL,"MIC ([11]; 568 Entero. faecium (isogenic of L569), isolated compounds): 0.25 µg/mL"
